Measurements from patent US10919841B2, “Monoamine reuptake inhibitors” (Research Triangle Institute, priority 2009, dated 2021).
Read-outs that look alike come from different tables or passages of the source.

Key:
[1] = target: T1, (h)DAT (Homo sapiens, UniProt Q01959); test: block of [3H]dopamine reuptake in HEK-(h)DAT cells; format: cell-based; conditions: for times more potent than bupropion as DA uptake inhibitor: relative to bupropion
T1 construct: expressed in transfected cells

[2] = system: rats; test: cocaine discrimination (2-lever operant), i.p. administration; conditions: for responders at 5 mg/kg / responders at 10 mg/kg / responders at 25 mg/kg / responders at 50 mg/kg / responders at 100 mg/kg / ED50: Rattus norvegicus, ip; for responders at 5 mg/kg / responders at 10 mg/kg / responders at 25 mg/kg / responders at 50 mg/kg / responders at 100 mg/kg: read-out: % cocaine lever responding
[3] = system: mice; test: locomotor activity, 1-h observation protocol; format: in vivo; conditions: for Emax / ED50: Mus musculus; for Emax: 0.5 h, read-out: Locomotor Activity 1-Hour % Peak Cocaine; for ED50 / Locomotor Activity 1-Hour ED50: dose to produce 50% of the compound's maximal effect, 1-h
[4] = target: T1, (h)DAT; test: competition binding with [125I]RTI-55 at (h)DAT stably expressed in HEK293 cells; conditions: for Ki: mean ± standard error of three independent experiments
[5] = system: mice; test: locomotor activity, 8-h time course protocol; format: in vivo; conditions: for locomotor stimulant activity across the 1-h and 8-h protocols, in words: 1-h and 8-h tests compared; for Emax / ED50: Mus musculus; for Emax: read-out: Locomotor Activity 8-Hour % Peak Cocaine, percent of cocaine's maximal effect, 30 min period of maximum stimulation; for ED50: read-out: Locomotor Activity 8-Hour ED50; for Locomotor Activity 8-Hour Time, min Period, length: duration of locomotor activity; for Locomotor Activity 8-Hour Time, min Period, max: time period of maximum effect; for onset and duration of locomotor activity, in words: mouse, in vivo
[6] = target: T2, (h)NET (Homo sapiens, UniProt P23975); test: block of [3H]norepinephrine reuptake in HEK-(h)NET cells; conditions: read-out: Uptake, IC50 [3H]NE; mean ± standard error of three independent experiments
[7] = target: T2, (h)NET; test: competition binding with [125I]RTI-55 at (h)NET stably expressed in HEK293 cells; conditions: for Ki: read-out: Binding, Ki NET, mean ± standard error of three independent experiments
[8] = system: rats; test: cocaine discrimination time-course study, oral administration; conditions: for ED50: Rattus norvegicus, po, 0.75 h; for generalization to cocaine: p.o.
[9] = target: T3, (h)SERT (Homo sapiens, UniProt P31645); conditions: read-out: Binding, Ki SERT
T3 construct: expressed in transfected cells; host or cells: HEK293

[10] = target: T3, (h)SERT; test: block of [3H]serotonin reuptake in HEK-(h)SERT cells; format: cell-based
[11] = [3H]DA, read-out: IC50 for DA uptake inhibition
[12] = dose to produce 50% of the compound's maximal effect, 8-h
[13] = read-out: Full Generalization ED50

T1 sequence (Q01959 whole entry): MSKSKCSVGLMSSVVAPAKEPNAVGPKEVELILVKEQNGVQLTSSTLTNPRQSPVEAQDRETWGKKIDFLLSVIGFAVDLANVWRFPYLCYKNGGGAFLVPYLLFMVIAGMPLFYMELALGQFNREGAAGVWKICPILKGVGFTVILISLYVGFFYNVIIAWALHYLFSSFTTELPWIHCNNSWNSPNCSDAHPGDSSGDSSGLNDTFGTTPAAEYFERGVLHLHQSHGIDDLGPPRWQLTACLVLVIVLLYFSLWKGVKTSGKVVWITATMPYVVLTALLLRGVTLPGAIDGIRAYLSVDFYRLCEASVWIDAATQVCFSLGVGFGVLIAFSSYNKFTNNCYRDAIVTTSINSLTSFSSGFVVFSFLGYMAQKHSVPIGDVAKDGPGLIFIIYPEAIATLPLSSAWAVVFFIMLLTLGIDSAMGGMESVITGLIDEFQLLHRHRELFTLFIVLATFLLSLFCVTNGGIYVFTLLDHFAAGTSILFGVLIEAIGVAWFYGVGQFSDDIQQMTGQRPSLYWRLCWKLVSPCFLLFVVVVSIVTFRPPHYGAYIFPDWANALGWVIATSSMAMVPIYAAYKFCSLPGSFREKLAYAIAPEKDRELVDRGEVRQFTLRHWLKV
T2 sequence (P23975 whole entry): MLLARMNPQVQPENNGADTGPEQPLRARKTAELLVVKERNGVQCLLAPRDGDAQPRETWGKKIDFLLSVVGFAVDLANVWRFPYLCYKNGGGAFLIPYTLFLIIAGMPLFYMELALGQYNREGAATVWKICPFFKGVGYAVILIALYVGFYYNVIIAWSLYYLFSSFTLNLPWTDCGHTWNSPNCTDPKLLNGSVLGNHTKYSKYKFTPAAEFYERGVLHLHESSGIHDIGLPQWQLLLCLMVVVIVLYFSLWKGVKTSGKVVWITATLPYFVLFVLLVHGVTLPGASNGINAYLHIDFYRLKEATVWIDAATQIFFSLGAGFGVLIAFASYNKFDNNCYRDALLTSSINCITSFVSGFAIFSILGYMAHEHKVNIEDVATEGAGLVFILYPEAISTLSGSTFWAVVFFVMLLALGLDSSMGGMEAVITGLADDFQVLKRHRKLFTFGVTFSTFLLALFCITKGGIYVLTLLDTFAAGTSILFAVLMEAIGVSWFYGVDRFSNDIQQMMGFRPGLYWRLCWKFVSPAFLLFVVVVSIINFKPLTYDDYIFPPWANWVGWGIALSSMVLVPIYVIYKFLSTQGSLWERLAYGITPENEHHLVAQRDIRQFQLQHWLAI
T3 sequence (P31645 whole entry): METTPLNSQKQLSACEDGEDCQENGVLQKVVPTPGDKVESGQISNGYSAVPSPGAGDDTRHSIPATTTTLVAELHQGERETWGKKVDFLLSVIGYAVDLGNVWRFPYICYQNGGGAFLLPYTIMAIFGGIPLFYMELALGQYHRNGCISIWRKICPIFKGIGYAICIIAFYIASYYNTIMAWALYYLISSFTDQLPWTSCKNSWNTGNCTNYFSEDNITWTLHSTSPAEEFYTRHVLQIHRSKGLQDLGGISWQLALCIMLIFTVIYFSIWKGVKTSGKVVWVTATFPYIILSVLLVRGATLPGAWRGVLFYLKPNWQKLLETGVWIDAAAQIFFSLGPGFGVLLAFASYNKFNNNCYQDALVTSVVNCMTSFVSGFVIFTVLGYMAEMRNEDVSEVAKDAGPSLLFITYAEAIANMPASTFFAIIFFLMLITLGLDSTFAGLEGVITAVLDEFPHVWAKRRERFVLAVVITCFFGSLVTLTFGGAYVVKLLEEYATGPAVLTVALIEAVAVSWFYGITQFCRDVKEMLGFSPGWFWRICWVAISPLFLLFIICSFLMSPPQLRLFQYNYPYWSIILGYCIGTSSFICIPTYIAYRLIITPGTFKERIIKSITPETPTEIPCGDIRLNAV

Row | Compound | IC50 [1, 11] [µM] | responders at 5 mg/kg [2] [%] | responders at 10 mg/kg [2] [%] | responders at 25 mg/kg [2] [%] | responders at 50 mg/kg [2] [%] | responders at 100 mg/kg [2] [%] | Emax [3] [%] | ED50 [3] [mg/kg] | Ki [4] [µM] | locomotor stimulant activity across the 1-h and 8-h protocols, in words [5] | Emax [5] [%] | ED50 [5, 12] [mg/kg] | Locomotor Activity 8-Hour Time, min Period, length [5] [min] | Locomotor Activity 8-Hour Time, min Period, max [5] [min] | IC50 [6] [µM] | Ki [7] [µM] | ED50 [8] [mg/kg] | times more potent than bupropion as DA uptake inhibitor [1] [times] | Locomotor Activity 1-Hour ED50 [3] | onset and duration of locomotor activity, in words [5] | other results
1 | CCCCCCC(NC(C)(C)C)C(=O)c1cccc(Cl)c1 (centres unmarked) [Compound 2s, 2-(N-tert-Butylamino)-3′-chlorooctanophenone] | 0.135 | 0 | 0 | 49 | 50 | 67 | 61 | 33.3 | 0.51 | weak stimulants in both tests | 60 | 9 | 130 to 140 | 110 to 140 | 4.89 | 2.58 | 37.9 |  |  |  | 
2 | CC(NC(C)(C)C)C(=O)c1ccc(Cl)c(Cl)c1 (centres unmarked) [Compound 2j, 2-(N-tert-Butylamino)-3′,4′-dichloropropiophenone] | 0.271 |  | 0 | 17 | 34 | 2 |  |  | 0.472 |  | 61 | 39.1 | 140 to 240 |  | 2.1 | 5.4 |  | 3.5 | NE^f | very slow onset of stimulatory activity | generalization to the cocaine cue, in words ([2]; i.p.): did not even show partial generalization; Ki [9]: 1.48 µM
3 | CC(C)CC(NC(C)(C)C)C(=O)c1cccc(Cl)c1 (centres unmarked) [Compound 2t, 2-(N-tert-Butylamino)-3′-chlorophenyl-4-methylpentanophenone] | 0.44 |  |  |  |  |  |  |  | 0.14 | weak stimulants in both tests |  |  | 320 | 260 to 290 | 0.36 | 2.3 |  |  | 47.7 mg/kg | very slow onset of stimulatory activity | Locomotor Activity 1-Hour % Peak Cocaine ([3]; maximal effect as percent of cocaine's maximal effect in the first 30 min): 62%; Ki ([9]; mean ± standard error of three independent experiments): 6.2 µM; Locomotor Activity 8-Hour ED50 [5, 12]: 22.1 mg/kg; Locomotor Activity 8-Hour % Peak Cocaine ([5]; percent of cocaine's maximal effect, 30 min period of maximum stimulation): 35%; IC50 ([10]; bound given in μM, read-out: Uptake, IC50 [3H]5-HT): > 10 µM
4 | C[C@@H](NC(C)(C)C)[C@H](O)c1ccccc1 (racemic) [Compound 7, (1RS,2RS)-2-(N-tert-Butylamino)-1-phenyl-1-propanol, reference compound] |  |  |  |  |  |  |  |  |  |  |  |  |  |  |  |  |  |  |  |  | affinity at the DAT, in words [4]: loss of affinity; affinity at the NET, in words [7]: loss of affinity; IC50 ([10]; [3H]5HT, read-out: IC50 for 5HT uptake inhibition): 1.24 µM
5 | CC(C(=O)c1cccc(Cl)c1)N(C)C (centres unmarked) [Compound 2dd, 2-(N,N-Dimethylamino)-3′-chloropropiophenone] | 1.53 | 0 | 83 | 83 | 10 |  | 100 | 11 | 4.13 | activity similar to cocaine in the 1-h protocol but weakened significantly in the 8-h time-course study | 52 | 13.9 | 180 to 190 | 90 to 120 | 1.26 | 3.09 | 5.36 |  |  |  | ED50 ([2]; read-out: ED50 for cocaine generalization): 4.84 mg/kg; ED50 [2, 13]: 4.84 mg/kg
6 | CCCC(NC(C)(C)C)C(=O)c1cccc(Cl)c1 (centres unmarked) [Compound 2p, 2-(N-tert-Butylamino)-3′-chloropentanophenone] |  | 1 | 33 | 83 |  |  | 96 | 17.2 | 0.096 | activity similar to cocaine in the 1-h protocol but weakened significantly in the 8-h time-course study | 72 | 16.3 | 210 to 480 | 90 to 120 | 0.472 | 1.17 | 22.2 | 29 |  |  | IC50 ([1]; mean ± standard error of three independent experiments, read-out: Uptake, IC50 [3H]DA): 0.033 ± 0.007 µM; ED50 [2, 13]: 11.9 mg/kg; generalization to cocaine ([8]; 45 min, 50 mg/kg): partial generalization; generalization to cocaine ([8]; 45 min, 100 mg/kg): full generalization; generalization to cocaine ([8]; 90 min, 100 mg/kg): full generalization; generalization to cocaine ([8]; 180 min, 100 mg/kg): partial generalization
